In paper PMC9318819 (Viruses, 2022):
Where two headings read alike, the source gives them in different places.

Experiments:
in vitro = details: human
[1] = tested on: HIV-1 (PBL286 (02ET_14), subtype C, Ethiopian isolate); assay: Anti-HIV screening in PBMC (Southern Research Institute); assay type: cell-based; details: for EC50: read-out: Antiviral Activity EC50; for EC90: read-out: Antiviral Activity EC90; for inhibition at 0.08 µg/mL: read-out: inhibition of HIV replication in PBMC
[2] = tested on: HIV provirus expression in J-Lat 10.6 T cells; assay: In vitro HIV latency reversal, GFP expression by flow cytometry; assay type: cell-based; details: 24 h
[3] = Primary cell viability by trypan blue counting; assay type: cell-based; details: human, 3 donors, read-out: viability of primary CD4+ T cells
Jurkat cells = assay: T cell activation, CD69 expression by flow cytometry; assay type: cell-based; details: 24 h
[4] = PBMC viability / cytotoxicity (MTS dye); details: human
HeLa-SXR5 cell line = assay: Cytotoxicity under deCIPhR cell culture conditions (Alamar Blue, four days); details: four days of incubation, any concentration (0.08 to 5 μg/mL)
[5] = tested on: HIV-1 in primary CD4+ T cells from cART-suppressed donors; assay: Ex vivo latency reversal, supernatant viral RNA by qRT-PCR; assay type: cell-based; details: 24 h, 3 donors
[6] = Cell viability by resazurin dye; assay type: cell-based; details: human, Jurkat T cells (Clone E6-1), parental, lacking HIV provirus, read-out: viability relative to 0.1% DMSO
[7] = tested on: CXCR4-tropic HIV isolate NL4-3; assay: deCIPhR in vitro anti-HIV replication assay (β-galactosidase, LTR-driven LacZ); assay type: cell-based
J-Lat 10.6 cells = assay: Effect of PKC inhibitors Gö 6983 and enzastaurin on LRA-induced latency reversal; assay type: cell-based; details: 1 μM Gö 6983
[8] = Human immunodeficiency virus 1, PBMC, subtype C virus
[9] = Human immunodeficiency virus 1, PBMC

`Cc1cn([C@H]2C[C@H](N=[N+]=[N-])[C@@H](CO)O2)c(=O)[nH]c1=O` [AZT, azidothymidine, reference compound] gave a CC50 (in vitro) of over 1000 nM, an EC50 [1, 8] of 7 nM and an EC90 [1, 8] of 50 nM. For the same compound, the “Selectivity Index CC50/IC50” value ([1]; PBMC) was over 142.
In the case of `C=C(C)C12OC3(/C=C/C=C/CCC)OC1C1C4OC4(CO)C(O)C4(O)C(=O)C(C)=CC4C1(O3)C(C)C2OC(=O)c1ccccc1` (stereo not shown) [Compound 1, yuanhuacine A], the “GFP expression (latency reversal), % of live-gated cells” value (“GFP expression (latency reversal), %” below) ([2]; 0.15 μM) is reported as 65.5 ± 6.3%, the viability at 24 h, 1.5 µM [3] is reported as 96.4 ± 32.2% and the CD69-positive cells (Jurkat cells; 0.5 μM) is reported as 75.4 ± 2.2%. The EC50 [1, 9] was 30 nM, the EC90 [1, 9] was 90 nM and the inhibition at 0.08 µg/mL [1, 9] was over 80%. The “Selectivity Index CC50/IC50” value ([1]; PBMC) was over 500, the CC50 [4] was over 15000 nM and the “cytotoxicity (Alamar Blue)” value (HeLa-SXR5 cell line) was “no evidence of cytotoxicity at any concentration”. The “average fold increase in viral RNA” value ([5]; 1.5 μM) was 10.8 fold, the “average supernatant viral RNA” value ([5]; 1.5 μM) was 352.5 ± 430.4 copies/mL and the viability at 24 h, 1.5 µM [6] was 51.2 ± 11.2%. For the same compound, the “inhibition of HIV replication across all test concentrations” value ([7]; test concentrations 0.08 to 5 μg/mL) was 65–80%.
For `C=C(C)C12OC3(/C=C/C=C/CCCCC)OC1C1C4OC4(CO)C(O)C4(O)C(=O)C(C)=CC4C1(O3)C(C)C2OC(=O)c1ccccc1` (stereo not shown) [Compound 2, yuanhuacine], the “GFP expression (latency reversal), %” value ([2]; 0.15 μM) was 58.2 ± 4.7%, the viability at 24 h, 1.5 µM [3] was 79.6 ± 41.5% and the CD69-positive cells (Jurkat cells; 0.5 μM) was 74.5 ± 1.3%. For the same compound, the inhibition at 0.08 µg/mL [1, 9] was over 80%, the “average fold increase in viral RNA” value ([5]; 1.5 μM) was 9.1 fold and the “average supernatant viral RNA” value ([5]; 1.5 μM) was 297 ± 267 copies/mL. For the same compound, the viability at 24 h, 1.5 µM [6] was 58.5 ± 15.9%.
For `Cc1[nH]c2ccccc2c1CCNCc1ccc(/C=C/C(=O)NO)cc1` [Panobinostat, reference compound], the CD69-positive cells (Jurkat cells; 0.1 μM) was 1.5 ± 1.3% and the “effect of Gö 6983 on latency reversal” value (J-Lat 10.6 cells; LRA at 0.1 μM) was “unaffected”.
In the case of `O=C1Nc2ccc(Cl)cc2[C@@](C#CC2CC2)(C(F)(F)F)O1` [efavirenz], the inhibition at 0.43 µM ([7]; Human immunodeficiency virus 1, NL43, 430 nM) is reported as 43.9 ± 41.9%, the inhibition at 0.93 µM ([7]; Human immunodeficiency virus 1, NL43, 930 nM) is reported as 111 ± 22.1% and the inhibition at 2 µM ([7]; Human immunodeficiency virus 1, NL43, 2000 nM) is reported as 107 ± 24.1%. It also gave an inhibition at 4.3 µM ([7]; Human immunodeficiency virus 1, NL43, 4300 nM) of 100%.
In the case of `CC(=O)O[C@@]12C[C@@H](C)[C@@]3(O)[C@@H](C=C(CO)C[C@]4(O)C(=O)C(C)=C[C@@H]34)[C@@H]1C2(C)C` [prostratin, reference compound], the “GFP expression (latency reversal), %” value ([2]; 2.5 μM) is reported as 66.0 ± 5.7%, the viability at 24 h, 10 µM ([3]; 10 μM) is reported as 65.9 ± 12.4% and the CD69-positive cells (Jurkat cells; 2.5 μM) is reported as 73.2 ± 1.3%. The “reduction in latency reversal by pan-PKC inhibitor Gö 6983” value (J-Lat 10.6 cells; LRA at 2.5 μM) was 74.7 ± 17.3%, the “average fold increase in viral RNA” value ([5]; 10 μM) was 23.2 fold and the “average supernatant viral RNA” value ([5]; 10 μM) was 755.5 ± 1144.2 copies/mL. It also gave a viability at 24 h, 0.5 µM ([6]; 0.5 μM) of 56 ± 10%.
